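Grown in 96-well plates, cells were treated for 48 hours with each compound at five concentrations. Insufficient inhibition: endpoint recorded as highest concentration tested. GI50: concentration for 50% inhibition of growth.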 Active and inactive are the calls of the source. No stated cut-off is given here; in the data, active = GI50 up to about 1.1 µM and inactive = higher.
Columns and labels:
Experiment in all cases: inhibition of tumour cell growth, NCI panel, 48 h
BT-549 = tested on: BT-549
SF-268 = tested on: SF-268
EKVX = tested on: EKVX
HOP-92 = tested on: HOP-92
ACHN = tested on: ACHN
MDA-N = tested on: MDA-N
OVCAR-4 = tested on: OVCAR-4
NCI-H522 = tested on: NCI-H522
SN12C = tested on: SN12C
A498 = tested on: A498
NCI/ADR-RES = tested on: NCI/ADR-RES
SF-295 = tested on: SF-295
UACC-257 = tested on: UACC-257
NCI-H226 = tested on: NCI-H226
MDA-MB-231 = tested on: MDA-MB-231
K562 = tested on: K562
SK-MEL-2 = tested on: SK-MEL-2
NCI-H460 = tested on: NCI-H460
COLO 205 = tested on: COLO 205
PC-3 = tested on: PC-3
CAKI-1 = tested on: CAKI-1
NCI-H23 = tested on: NCI-H23
SNB-75 = tested on: SNB-75
DU-145 = tested on: DU-145
U-251 = tested on: U-251
HOP-62 = tested on: HOP-62
OVCAR-8 = tested on: OVCAR-8
Malme-3M = tested on: Malme-3M
UACC-62 = tested on: UACC-62
786-0 = tested on: 786-0
M14 = tested on: M14
SK-OV-3 = tested on: SK-OV-3
MDA-MB-435 = tested on: MDA-MB-435
HCT-15 = tested on: HCT-15
IGROV-1 = tested on: IGROV-1
TK-10 = tested on: TK-10
HT-29 = tested on: HT-29
MCF7 = tested on: MCF7
OVCAR-5 = tested on: OVCAR-5
SNB-19 = tested on: SNB-19
A549 = tested on: A549
SK-MEL-5 = tested on: SK-MEL-5
RXF 393 = tested on: RXF 393
SF-539 = tested on: SF-539
Hs-578T = tested on: Hs-578T
T47D = tested on: T47D
RPMI-8226 = tested on: RPMI-8226
UO-31 = tested on: UO-31
HCT-116 = tested on: HCT-116
SK-MEL-28 = tested on: SK-MEL-28
SW-620 = tested on: SW-620
OVCAR-3 = tested on: OVCAR-3
KM12 = tested on: KM12
LOX IMVI = tested on: LOX IMVI
CCRF-CEM = tested on: CCRF-CEM
MOLT-4 = tested on: MOLT-4
HL-60 = tested on: HL-60
HCC 2998 = tested on: HCC 2998

With `N#Cc1c(NC(=O)CCC(=O)O)ccc2ccccc12` the GI50 (BT-549) was > 100 µM (inactive), the GI50 (SF-268) was > 100 µM (inactive) and the GI50 (EKVX) was > 100 µM (inactive). For the same compound, the GI50 (HOP-92) was > 100 µM (inactive), the GI50 (ACHN) was > 100 µM (inactive) and the GI50 (MDA-N) was > 100 µM (inactive). The GI50 (OVCAR-4) was > 100 µM (inactive), the GI50 (NCI-H522) was > 100 µM (inactive) and the GI50 (SN12C) was > 100 µM (inactive). For the same compound, the GI50 (A498) was > 100 µM (inactive), the GI50 (NCI/ADR-RES) was > 100 µM (inactive) and the GI50 (SF-295) was > 100 µM (inactive). The GI50 (UACC-257) was > 100 µM (inactive), the GI50 (NCI-H226) was > 100 µM (inactive) and the GI50 (MDA-MB-231) was > 100 µM (inactive). For the same compound, the GI50 (K562) was > 100 µM (inactive), the GI50 (SK-MEL-2) was > 100 µM (inactive) and the GI50 (NCI-H460) was > 100 µM (inactive). For the same compound, the GI50 (COLO 205) was > 100 µM (inactive), the GI50 (PC-3) was > 100 µM (inactive) and the GI50 (CAKI-1) was > 100 µM (inactive). The GI50 (NCI-H23) was > 100 µM (inactive), the GI50 (SNB-75) was 64.1 µM (inactive) and the GI50 (DU-145) was > 100 µM (inactive). The GI50 (U-251) was > 100 µM (inactive), the GI50 (HOP-62) was > 100 µM (inactive) and the GI50 (OVCAR-8) was > 100 µM (inactive). The GI50 (Malme-3M) was > 100 µM (inactive), the GI50 (UACC-62) was > 100 µM (inactive) and the GI50 (786-0) was > 100 µM (inactive). For the same compound, the GI50 (M14) was > 100 µM (inactive), the GI50 (SK-OV-3) was > 100 µM (inactive) and the GI50 (MDA-MB-435) was > 100 µM (inactive). For the same compound, the GI50 (HCT-15) was > 100 µM, the GI50 (IGROV-1) was > 100 µM (inactive) and the GI50 (TK-10) was > 100 µM (inactive). For the same compound, the GI50 (HT-29) was > 100 µM (inactive), the GI50 (MCF7) was > 100 µM (inactive) and the GI50 (OVCAR-5) was > 100 µM (inactive). The GI50 (SNB-19) was > 100 µM (inactive), the GI50 (A549) was > 100 µM (inactive) and the GI50 (SK-MEL-5) was > 100 µM (inactive). For the same compound, the GI50 (RXF 393) was > 100 µM (inactive), the GI50 (SF-539) was > 100 µM (inactive) and the GI50 (Hs-578T) was > 100 µM (inactive). The GI50 (T47D) was > 100 µM (inactive), the GI50 (RPMI-8226) was > 100 µM (inactive) and the GI50 (UO-31) was > 100 µM (inactive). For the same compound, the GI50 (HCT-116) was > 100 µM (inactive), the GI50 (SK-MEL-28) was > 100 µM (inactive) and the GI50 (SW-620) was > 100 µM (inactive). For the same compound, the GI50 (OVCAR-3) was > 100 µM (inactive) and the GI50 (KM12) was > 100 µM (inactive).

With `S=C1NC2=C(COc3ccccc32)C(c2ccc(Cl)cc2)N1` (centres undefined) the GI50 (BT-549) was 21.1 µM (inactive), the GI50 (SF-268) was 17.6 µM (inactive) and the GI50 (EKVX) was 17.1 µM (inactive). The GI50 (HOP-92) was > 10 µM (inactive), the GI50 (ACHN) was 22.9 µM (inactive) and the GI50 (MDA-N) was 16.4 µM (inactive). The GI50 (LOX IMVI) was 16.3 µM (inactive), the GI50 (SN12C) was 2.54 µM (inactive) and the GI50 (A498) was 18.1 µM (inactive). For the same compound, the GI50 (CCRF-CEM) was 21.3 µM (inactive), the GI50 (NCI/ADR-RES) was 18.9 µM (inactive) and the GI50 (SF-295) was 13.8 µM (inactive). For the same compound, the GI50 (UACC-257) was 21.2 µM (inactive), the GI50 (NCI-H226) was 17.6 µM (inactive) and the GI50 (MDA-MB-231) was 17.4 µM (inactive). The GI50 (K562) was 15.6 µM (inactive), the GI50 (SK-MEL-2) was 15.3 µM (inactive) and the GI50 (COLO 205) was 18.7 µM (inactive). The GI50 (PC-3) was 13.4 µM (inactive), the GI50 (NCI-H23) was 21.7 µM (inactive) and the GI50 (MOLT-4) was 12.8 µM (inactive). For the same compound, the GI50 (SNB-75) was 20 µM (inactive), the GI50 (DU-145) was 19.9 µM (inactive) and the GI50 (U-251) was > 10 µM (inactive). The GI50 (HOP-62) was 17.1 µM (inactive), the GI50 (OVCAR-8) was 21.6 µM (inactive) and the GI50 (UACC-62) was 17.4 µM (inactive). For the same compound, the GI50 (786-0) was 19.2 µM (inactive), the GI50 (M14) was 18.7 µM (inactive) and the GI50 (SK-OV-3) was 19.6 µM (inactive). The GI50 (MDA-MB-435) was 24 µM (inactive), the GI50 (IGROV-1) was 16.6 µM (inactive) and the GI50 (HT-29) was 15.5 µM (inactive). The GI50 (MCF7) was 19.1 µM (inactive), the GI50 (OVCAR-5) was 16.3 µM (inactive) and the GI50 (SNB-19) was 22.9 µM (inactive). For the same compound, the GI50 (A549) was 20.2 µM (inactive), the GI50 (SK-MEL-5) was 15 µM (inactive) and the GI50 (RXF 393) was 15.5 µM (inactive). The GI50 (SF-539) was 16.6 µM (inactive), the GI50 (Hs-578T) was 21.6 µM (inactive) and the GI50 (T47D) was 18.2 µM (inactive). For the same compound, the GI50 (RPMI-8226) was 5.78 µM (inactive), the GI50 (UO-31) was 18.4 µM (inactive) and the GI50 (HCT-116) was 15.5 µM (inactive). For the same compound, the GI50 (SK-MEL-28) was 21.9 µM (inactive), the GI50 (SW-620) was 28.6 µM (inactive) and the GI50 (OVCAR-3) was 15.3 µM (inactive). For the same compound, the GI50 (HL-60) was 13.9 µM (inactive) and the GI50 (KM12) was 16.2 µM (inactive).

In the case of `Cc1cnc(-n2c(C)nc3cc(Cl)ccc3c2=O)s1`, the GI50 (BT-549) is reported as 28.4 µM (inactive), the GI50 (SF-268) is reported as 44.1 µM (inactive) and the GI50 (EKVX) is reported as 11.1 µM (inactive). For the same compound, the GI50 (HOP-92) was 47.6 µM (inactive), the GI50 (ACHN) was 31 µM (inactive) and the GI50 (MDA-N) was 13 µM (inactive). For the same compound, the GI50 (LOX IMVI) was 41.6 µM (inactive), the GI50 (HCC 2998) was 26.5 µM (inactive) and the GI50 (OVCAR-4) was 58.5 µM (inactive). For the same compound, the GI50 (NCI-H522) was 22 µM (inactive), the GI50 (SN12C) was 34.2 µM (inactive) and the GI50 (A498) was 20.4 µM (inactive). For the same compound, the GI50 (CCRF-CEM) was 31.5 µM (inactive), the GI50 (NCI/ADR-RES) was 28 µM (inactive) and the GI50 (SF-295) was 37.1 µM (inactive). The GI50 (UACC-257) was 29.1 µM (inactive), the GI50 (NCI-H226) was 32 µM (inactive) and the GI50 (MDA-MB-231) was 42.5 µM (inactive). For the same compound, the GI50 (K562) was 31.1 µM (inactive), the GI50 (SK-MEL-2) was 25.4 µM (inactive) and the GI50 (NCI-H460) was 30.2 µM (inactive). For the same compound, the GI50 (COLO 205) was 19 µM (inactive), the GI50 (PC-3) was 27.9 µM (inactive) and the GI50 (CAKI-1) was 64.3 µM (inactive). For the same compound, the GI50 (NCI-H23) was 23.3 µM (inactive), the GI50 (MOLT-4) was 30.8 µM (inactive) and the GI50 (SNB-75) was 10.6 µM (inactive). The GI50 (DU-145) was 25.6 µM (inactive), the GI50 (U-251) was 30.5 µM (inactive) and the GI50 (HOP-62) was > 100 µM (inactive). For the same compound, the GI50 (OVCAR-8) was 45.7 µM (inactive), the GI50 (Malme-3M) was 67.9 µM (inactive) and the GI50 (UACC-62) was 23.2 µM (inactive). For the same compound, the GI50 (786-0) was 24.5 µM (inactive), the GI50 (M14) was 31.6 µM (inactive) and the GI50 (SK-OV-3) was > 100 µM (inactive). The GI50 (MDA-MB-435) was 28.1 µM (inactive), the GI50 (HCT-15) was 26.2 µM and the GI50 (IGROV-1) was 40 µM (inactive). For the same compound, the GI50 (TK-10) was 43.1 µM (inactive), the GI50 (HT-29) was 32.7 µM (inactive) and the GI50 (MCF7) was 17.9 µM (inactive). For the same compound, the GI50 (OVCAR-5) was 56.4 µM (inactive), the GI50 (SNB-19) was 35.1 µM (inactive) and the GI50 (A549) was 32.7 µM (inactive). The GI50 (SK-MEL-5) was 16 µM (inactive), the GI50 (SF-539) was 20.7 µM (inactive) and the GI50 (Hs-578T) was 74.6 µM (inactive). For the same compound, the GI50 (T47D) was 21.3 µM (inactive), the GI50 (UO-31) was 1.28 µM (inactive) and the GI50 (HCT-116) was 22 µM (inactive). For the same compound, the GI50 (SK-MEL-28) was 49.7 µM (inactive), the GI50 (SW-620) was 43 µM (inactive) and the GI50 (OVCAR-3) was 45.6 µM (inactive). The GI50 (HL-60) was 26 µM (inactive) and the GI50 (KM12) was 21.8 µM (inactive).

Source: ChEMBL document CHEMBL1201862, “PubChem BioAssay data set” (2004)
